Source: patent US10543198B2 (Celgene Quanticel Research, Inc., priority 2014, dated 2020)

Assays:
full-length human LSD1 = full-length human LSD1 (Homo sapiens (Human), UniProt O60341); assay: In Vitro Enzyme Inhibition Assay - LSD-1 (TR-FRET); type: biochemical; conditions: 0.1 nM LSD1, H3K4me1-biotin peptide
Experimental: This assay determines the ability of a test compound to inhibit LSD1 demethylase activity.
The enzymatic assay of LSD1 activity is based on Time Resolved-Fluorescence Resonance Energy Transfer (TR-FRET) detection.
The ability of the compounds disclosed herein to inhibit LSD1 activity was quantified and the respective IC50 value was determined.

THP-1 (AML) cells = assay: LSD1 CD11b Cellular Assay (flow cytometry); type: cell-based; conditions: CD11b expression in THP-1 cells, 4 days incubation
Experimental: To analyze LSD1 inhibitor efficacy in cells, a CD11b flow cytometry assay was performed. LSD1 inhibition induces CD11b expression in THP-1 (AML) cells which can be measured by flow cytometry. […] LSD1 test compounds were serially diluted in DMSO. The dilutions were added to each well accordingly to a final concentration of 0.2% DMSO. The cells were incubated at 37 degrees Celsius in 5% CO2 for 4 days. 250 μL of each well was transferred to a well in a 96 well round bottom plate. The plate was centrifuged at 1200 rpm at 4 degrees Celsius in a Beckman Coulter Alegra 6KR centrifuge for 5 minutes. The media was removed leaving the cells at the bottom of the wells. The cells were washed in 100 μL cold HBSS (Hank's Balanced Salt Solution) plus 2% BSA (Bovine Serum Albumin) solution and centrifuged at 1200 rpm at 4 degrees Celsius for 5 minutes. The wash was removed. […] The cells were centrifuged and washed two times in 100 μl HBSS plus 2% BSA. After the final spin the cells were resuspended in 100 μL HBSS plus 2% BSA containing 1 ug/mL DAPI (4′,6-diamidino-2-phenylindole). The cells were then analyzed by flow cytometry in a BD FACSAria machine. Cells were analyzed for CD11b expression. The percent of CD11b expressing cells for each inhibitor concentration was used to determine an IC50 curve for each compound analyzed.

| IC50 (full-length human LSD1) | IC50 (THP-1 (AML) cells; Homo sapiens, 96 h) | Compound | IC50 (THP-1 (AML) cells) |
| --- | --- | --- | --- |
| < 100 nM | < 100 nM | CNC1CCN(c2cnc(-c3ccc(N(C)C)nc3)c(-c3ccc(C#N)c(F)c3)n2)CC1 [Example 57, 4-{3-[6-(dimethylamino)(3-pyridyl)]-6-[4-(methylamino)piperidyl]pyrazin-2-yl}-2-fluorobenzenecarbonitrile] | – |
| < 100 nM | < 100 nM | CNC1CCN(c2cnc(-c3cc4ncn(C(C)C)c4cc3F)c(-c3ccc(C#N)c(F)c3)n2)CC1 [Example 67, 2-fluoro-4-[3-(6-fluoro-1-propan-2-ylbenzimidazol-5-yl)-6-[4-(methylamino)piperidin-1-yl]pyrazin-2-yl]benzonitrile] | – |
| < 100 nM | < 100 nM | Cn1ncc2cc(-c3ncc(N4CCC(N)CC4)nc3-c3ccc(C#N)c(F)c3)ccc21 [Example 51, 4-[6-(4-aminopiperidin-1-yl)-3-(1-methyl-1H-indazol-5-yl)pyrazin-2-yl]-2-fluorobenzonitrile] | – |
| < 100 nM | < 100 nM | CNC1CCN(c2cnc(-c3ccc4c(c3)ncn4C(C)C)c(-c3ccc(C#N)c(F)c3)n2)CC1 [Example 68, 2-fluoro-4-[6-[4-(methylamino)piperidin-1-yl]-3-(1-propan-2-ylbenzimidazol-5-yl)pyrazin-2-yl]benzonitrile] | – |
| < 100 nM | < 100 nM | CNC1CCN(c2cnc(-c3ccc4c(c3)ncn4C)c(-c3ccc(C#N)c(F)c3)n2)CC1 [Example 65, 2-fluoro-4-[6-[4-(methylamino)piperidin-1-yl]-3-(1-methylbenzimidazol-5-yl)pyrazin-2-yl]benzonitrile] | – |
| < 100 nM | < 100 nM | CNC1CCN(c2cnc(-c3ccc(OC)c(F)c3)c(-c3ccc(C#N)c(F)c3)n2)CC1 [Example 63] | – |
| < 100 nM | < 100 nM | CNC1CCN(c2cnc(-c3ccc4c(c3)nnn4C)c(-c3ccc(C#N)c(F)c3)n2)CC1 [Example 56, 2-fluoro-4-{6-[4-(methylamino)piperidyl]-3-(1-methylbenzotriazol-5-yl)pyrazin-2-yl}benzenecarbonitrile] | – |
| < 100 nM | < 100 nM | CNC1CCN(c2cnc(-c3cnc(N(C)C)nc3)c(-c3ccc(C#N)c(F)c3)n2)CC1 [Example 58, 4-{3-[2-(dimethylamino)pyrimidin-5-yl]-6-[4-(methylamino)piperidyl]pyrazin-2-yl}-2-fluorobenzenecarbonitrile] | – |
| < 100 nM | < 100 nM | Cn1cc2ccc(-c3ncc(N4CCC(N)CC4)nc3-c3ccc(C#N)c(F)c3)cc2n1 [Example 52, 4-[6-(4-aminopiperidin-1-yl)-3-(2-methyl-2H-indazol-6-yl)pyrazin-2-yl]-2-fluorobenzonitrile] | – |
| < 100 nM | < 100 nM | Cn1nnc2cc(-c3ncc(N4CCC(N)CC4)nc3-c3ccc(C#N)c(F)c3)ccc21 [Example 53, 4-[6-(4-aminopiperidin-1-yl)-3-(1-methyl-1H-1,2,3-benzotriazol-5-yl)pyrazin-2-yl]-2-fluorobenzonitrile] | – |
| < 100 nM | < 100 nM | CNC1CCN(c2cnc(-c3cnc4c(cnn4C)c3)c(-c3ccc(C#N)c(F)c3)n2)CC1 [Example 59, 2-fluoro-4-{6-[4-(methylamino)piperidyl]-3-(1-methylpyrazolo[5,4-b]pyridin-5-yl)pyrazin-2-yl}benzenecarbonitrile] | – |
| < 100 nM | < 100 nM | CNC1CCN(c2cnc(-c3cc4ncn(C)c4cc3F)c(-c3ccc(C#N)c(F)c3)n2)CC1 [Example 61, 2-fluoro-4-[3-(6-fluoro-1-methylbenzimidazol-5-yl)-6-[4-(methylamino)piperidin-1-yl]pyrazin-2-yl]benzonitrile] | – |
| < 100 nM | < 100 nM | CCn1cnc2cc(-c3ncc(N4CCC(N)CC4)nc3-c3ccc(C#N)c(F)c3)c(F)cc21 [Example 71, 4-[6-(4-aminopiperidin-1-yl)-3-(1-ethyl-6-fluorobenzimidazol-5-yl)pyrazin-2-yl]-2-fluorobenzonitrile] | – |
| < 100 nM | < 100 nM | CC(C)n1cnc2cc(-c3ncc(N4CCC(N)CC4)nc3-c3ccc(C#N)c(F)c3)c(F)cc21 [Example 70, 4-[6-(4-aminopiperidin-1-yl)-3-(6-fluoro-1-propan-2-ylbenzimidazol-5-yl)pyrazin-2-yl]-2-fluorobenzonitrile] | – |
| < 100 nM | < 100 nM | CC(C)n1cnc2cc(-c3ncc(N4CCC(N)CC4)nc3-c3ccc(C#N)c(F)c3)ccc21 [Example 72, 4-[6-(4-aminopiperidin-1-yl)-3-(1-propan-2-ylbenzimidazol-5-yl)pyrazin-2-yl]-2-fluorobenzonitrile] | – |
| < 100 nM | < 100 nM | CNC1CCN(c2cnc(C#CC(C)(C)O)c(-c3ccc(C#N)c(F)c3)n2)CC1 [Example 66, 2-fluoro-4-[3-(3-hydroxy-3-methylbut-1-ynyl)-6-[4-(methylamino)piperidin-1-yl]pyrazin-2-yl]benzonitrile] | – |
| < 100 nM | – | N#Cc1ccc(-c2cc3c(ccn3C[C@H]3CCNC3)nc2-c2ccc(F)cc2)cc1 [Example 5, 4-[5-(4-fluorophenyl)-1-[[(3S)-pyrrolidin-3-yl]methyl]pyrrolo[3,2-b]pyridin-6-yl]benzonitrile] | – |
| < 100 nM | – | Cc1ccc(-c2nc3ccn(C[C@H]4CCNC4)c3cc2-c2ccc(C#N)cc2)cc1 [Example 3, 4-[5-(4-methylphenyl)-1-[[(3S)-pyrrolidin-3-yl]methyl]pyrrolo[3,2-b]pyridin-6-yl]benzonitrile] | – |

Further lines, the compound ahead of its results:

| Compound | IC50 (full-length human LSD1) | IC50 (THP-1 (AML) cells; Homo sapiens, 96 h) | IC50 (THP-1 (AML) cells) |
| --- | --- | --- | --- |
| CCn1cnc2cc(-c3ncc(N4CCC(NC)CC4)nc3-c3ccc(C#N)c(F)c3)c(F)cc21 [Example 69, 4-[3-(1-ethyl-6-fluorobenzimidazol-5-yl)-6-[4-(methylamino)piperidin-1-yl]pyrazin-2-yl]-2-fluorobenzonitrile] | < 100 nM | < 100 nM | – |
| CNC1CCN(c2cnc(-c3cc4ncn(C)c4c(F)c3F)c(-c3ccc(C#N)c(F)c3)n2)CC1 [Example 62, 4-[3-(6,7-difluoro-1-methylbenzimidazol-5-yl)-6-[4-(methylamino)piperidin-1-yl]pyrazin-2-yl]-2-fluorobenzonitrile] | < 100 nM | < 100 nM | – |
| CCn1cnc2cc(-c3ncc(N4CCC(N)CC4)nc3-c3ccc(C#N)c(F)c3)c(F)c(F)c21 [Example 74, 4-[6-(4-aminopiperidin-1-yl)-3-(1-ethyl-6,7-difluorobenzimidazol-5-yl)pyrazin-2-yl]-2-fluorobenzonitrile] | < 100 nM | < 100 nM | – |
| Cc1ccc(-c2nc3ccn(CC4(F)CCNC4)c3cc2-c2ccc(C#N)cc2)cc1 (centres unmarked) [Example 9, 4-[1-[(3-fluoropyrroridin-3-yl)methyl]-5-(4-methylphenyl)pyrrolo[3,2-b]pyridin-6-yl]benzonitrile] | < 100 nM | 100 to 1000 nM | – |
| Cn1cnc2cc(-c3ncc(N4CCC(N)CC4)nc3-c3ccc(C#N)c(F)c3)c(F)c(F)c21 [Example 75, 4-[6-(4-aminopiperidin-1-yl)-3-(6,7-difluoro-1-methylbenzimidazol-5-yl)pyrazin-2-yl]-2-fluorobenzonitrile] | < 100 nM | < 100 nM | – |
| CC(C)n1cnc2cc(-c3ncc(N4CCC(N)CC4)nc3-c3ccc(C#N)c(F)c3)c(F)c(F)c21 [Example 73, 4-[6-(4-aminopiperidin-1-yl)-3-(6,7-difluoro-1-propan-2-ylbenzimidazol-5-yl)pyrazin-2-yl]-2-fluorobenzonitrile] | < 100 nM | < 100 nM | – |
| Cn1nnc2cc(-c3ncc(N4CCC(N)CC4)nc3-c3ccc(C#N)c(F)c3)cnc21 [Example 54, 4-[6-(4-aminopiperidin-1-yl)-3-{3-methyl-3H-[1,2,3]triazolo[4,5-b]pyridin-6-yl}pyrazin-2-yl]-2-fluorobenzonitrile] | < 100 nM | < 100 nM | – |
| 4-[5-(4-methylphenyl)-1-[[(2R)-morpholin-2-yl]methyl]pyrrolo[3,2-b]pyridin-6-yl]benzonitrile [Example 48] | – | – | > 10000 nM |
| Cc1ccc(-c2cc(NC[C@@H]3CCNC3)nn2-c2ccc(C#N)cc2)cc1 [Example 45, 4-[5-(4-methylphenyl)-3-[[(3R)-pyrrolidin-3-yl]methylamino]pyrazol-1-yl]benzonitrile] | < 100 nM | – | – |
| Cc1ccc(-c2cc(NC[C@H]3[C@@H]4CNC[C@@H]43)nn2-c2ccc(C#N)cc2)cc1 [Example 47, 4-[3-[[(1S,5R)-3-azabicyclo[3.1.0]hexan-6-yl]methylamino]-5-(4-methylphenyl)pyrazol-1-yl]benzonitrile] | < 100 nM | – | – |
| Cc1ccc(-c2nc3ccn(CCCN)c3cc2-c2ccc(C#N)cc2)cc1 [Example 12, 4-[1-(3-aminopropyl)-5-(4-methylphenyl)pyrrolo[3,2-b]pyridine-6-yl]benzonitrile] | < 100 nM | – | – |
| Cc1ccc(-c2cnc(OC[C@@H]3CCNC3)nc2-c2ccc(C#N)cc2)cc1 [Example 20, 4-[5-(4-methylphenyl)-2-[(3R)-pyrrolidin-3-ylmethoxy]pyrimidin-4-yl]benzonitrile] | < 100 nM | – | – |
